According to the supplement of paper PMC13386468:

Experiments:
Assay in all cases: IC50 for competition of protein binding to Kinobeads
Settings in all cases: assay detail: Kinobeads competition in P. falciparum blood-stage lysate
UniProt Q7KQL3 = target: UniProt Q7KQL3
UniProt Q8II01 = target: UniProt Q8II01
UniProt Q8IDW4 = target: UniProt Q8IDW4
UniProt Q8ILZ7 = target: UniProt Q8ILZ7
UniProt Q8IDG2 = target: UniProt Q8IDG2
UniProt Q8I5B6 = target: UniProt Q8I5B6
UniProt Q8IKH3 = target: UniProt Q8IKH3
UniProt Q8I603 = target: UniProt Q8I603
UniProt Q8I1V2 = target: UniProt Q8I1V2
UniProt P50250 = target: UniProt P50250
UniProt Q8IM27 = target: UniProt Q8IM27
UniProt Q8IIV2 = target: UniProt Q8IIV2
UniProt Q8IDJ8 = target: UniProt Q8IDJ8
UniProt O96258 = target: UniProt O96258
UniProt Q8IJX3 = target: UniProt Q8IJX3
UniProt Q8IAY9 = target: UniProt Q8IAY9
UniProt O96259 = target: UniProt O96259
UniProt Q8IID5 = target: UniProt Q8IID5
UniProt O77388 = target: UniProt O77388
UniProt Q8IKF6 = target: UniProt Q8IKF6
UniProt Q8II79 = target: UniProt Q8II79
UniProt Q8IAX6 = target: UniProt Q8IAX6
UniProt Q6ZMA8 = target: UniProt Q6ZMA8
UniProt Q8IDB8 = target: UniProt Q8IDB8
UniProt O97249 = target: UniProt O97249
UniProt Q8I5Q6 = target: UniProt Q8I5Q6
UniProt Q8IJT1 = target: UniProt Q8IJT1
UniProt Q8II53 = target: UniProt Q8II53
UniProt Q8IAW0 = target: UniProt Q8IAW0
UniProt Q8I0W9 = target: UniProt Q8I0W9
UniProt Q8ID50 = target: UniProt Q8ID50
UniProt Q8IJN3 = target: UniProt Q8IJN3
UniProt Q9TY98 = target: UniProt Q9TY98
UniProt O77310 = target: UniProt O77310
UniProt Q9U0I0 = target: UniProt Q9U0I0
UniProt Q8ID96 = target: UniProt Q8ID96
UniProt Q8ILV2 = target: UniProt Q8ILV2
UniProt Q8I202 = target: UniProt Q8I202
UniProt C6KTC6 = target: UniProt C6KTC6
UniProt Q8II16 = target: UniProt Q8II16
UniProt Q8I5L6 = target: UniProt Q8I5L6
UniProt Q9TY94 = target: UniProt Q9TY94
UniProt Q8IBS5 = target: UniProt Q8IBS5
Q8ICR0 = Q8ICR0 (UniProt O15865)
UniProt Q8IIF4 = target: UniProt Q8IIF4
UniProt Q8IJX8 = target: UniProt Q8IJX8
UniProt Q8IIG7 = target: UniProt Q8IIG7
UniProt Q8IE85 = target: UniProt Q8IE85
UniProt Q8IJI0 = target: UniProt Q8IJI0
UniProt Q8I5X7 = target: UniProt Q8I5X7
UniProt C0H586 = target: UniProt C0H586

Measured: IC50
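Further: native unpurified kinases from lysate captured on beads bearing immobilized kinase inhibitors, with bead-bound kinases quantified by mass spectrometry across compound doses.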

Sequence of UniProt O97249 (O97249 whole entry): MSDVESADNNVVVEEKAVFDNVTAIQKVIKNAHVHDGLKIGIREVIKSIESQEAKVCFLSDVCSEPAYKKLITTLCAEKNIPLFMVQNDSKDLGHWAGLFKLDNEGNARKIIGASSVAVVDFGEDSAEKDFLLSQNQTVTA
Sequence of UniProt P50250 (P50250 whole entry): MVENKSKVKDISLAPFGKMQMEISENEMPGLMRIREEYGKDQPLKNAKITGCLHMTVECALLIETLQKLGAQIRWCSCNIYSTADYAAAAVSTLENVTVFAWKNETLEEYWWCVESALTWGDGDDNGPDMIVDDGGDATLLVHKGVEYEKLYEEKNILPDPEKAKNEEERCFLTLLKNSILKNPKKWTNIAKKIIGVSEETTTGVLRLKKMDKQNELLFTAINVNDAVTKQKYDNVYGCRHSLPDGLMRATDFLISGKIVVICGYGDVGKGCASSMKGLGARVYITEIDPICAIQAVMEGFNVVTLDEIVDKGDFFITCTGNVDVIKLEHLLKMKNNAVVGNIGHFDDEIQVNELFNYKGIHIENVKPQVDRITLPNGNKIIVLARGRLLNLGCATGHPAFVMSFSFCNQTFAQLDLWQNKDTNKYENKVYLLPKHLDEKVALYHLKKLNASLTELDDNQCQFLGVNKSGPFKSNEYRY
Sequence of UniProt O77310 (O77310 whole entry): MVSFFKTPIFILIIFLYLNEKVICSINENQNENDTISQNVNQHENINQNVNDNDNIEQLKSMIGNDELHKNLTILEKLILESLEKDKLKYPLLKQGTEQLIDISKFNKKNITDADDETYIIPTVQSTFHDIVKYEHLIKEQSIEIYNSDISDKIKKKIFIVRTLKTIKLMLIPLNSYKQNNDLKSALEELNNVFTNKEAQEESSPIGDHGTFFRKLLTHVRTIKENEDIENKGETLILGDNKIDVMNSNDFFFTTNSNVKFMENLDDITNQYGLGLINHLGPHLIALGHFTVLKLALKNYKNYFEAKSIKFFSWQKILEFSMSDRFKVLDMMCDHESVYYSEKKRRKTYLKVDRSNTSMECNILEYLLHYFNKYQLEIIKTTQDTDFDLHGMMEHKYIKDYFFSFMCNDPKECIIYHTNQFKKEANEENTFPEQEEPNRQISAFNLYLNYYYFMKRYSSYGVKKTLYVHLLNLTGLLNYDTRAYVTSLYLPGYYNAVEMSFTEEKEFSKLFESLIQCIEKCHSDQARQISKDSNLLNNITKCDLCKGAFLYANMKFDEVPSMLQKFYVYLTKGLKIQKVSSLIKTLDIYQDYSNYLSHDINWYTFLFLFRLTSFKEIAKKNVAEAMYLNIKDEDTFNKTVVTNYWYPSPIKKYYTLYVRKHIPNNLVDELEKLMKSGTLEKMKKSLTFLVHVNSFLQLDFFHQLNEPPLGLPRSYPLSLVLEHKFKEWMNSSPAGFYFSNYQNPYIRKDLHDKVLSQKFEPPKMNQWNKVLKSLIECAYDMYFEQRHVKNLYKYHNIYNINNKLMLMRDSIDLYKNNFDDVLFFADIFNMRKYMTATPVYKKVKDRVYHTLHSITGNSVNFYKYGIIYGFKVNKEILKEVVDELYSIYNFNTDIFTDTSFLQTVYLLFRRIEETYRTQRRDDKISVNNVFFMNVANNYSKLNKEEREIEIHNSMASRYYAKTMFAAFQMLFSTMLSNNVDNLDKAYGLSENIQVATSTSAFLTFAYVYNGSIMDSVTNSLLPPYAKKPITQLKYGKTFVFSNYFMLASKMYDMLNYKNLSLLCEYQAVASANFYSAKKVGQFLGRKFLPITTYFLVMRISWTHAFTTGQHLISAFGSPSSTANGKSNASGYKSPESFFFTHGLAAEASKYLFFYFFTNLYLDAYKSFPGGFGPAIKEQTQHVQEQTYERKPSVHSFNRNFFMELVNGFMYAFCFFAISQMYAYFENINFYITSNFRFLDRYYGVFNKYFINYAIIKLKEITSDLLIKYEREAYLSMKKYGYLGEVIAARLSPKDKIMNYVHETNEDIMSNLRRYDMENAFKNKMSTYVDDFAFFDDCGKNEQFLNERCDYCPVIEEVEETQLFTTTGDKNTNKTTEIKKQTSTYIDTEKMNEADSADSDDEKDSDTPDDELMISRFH
Sequence of UniProt Q7KQL3 (Q7KQL3 whole entry): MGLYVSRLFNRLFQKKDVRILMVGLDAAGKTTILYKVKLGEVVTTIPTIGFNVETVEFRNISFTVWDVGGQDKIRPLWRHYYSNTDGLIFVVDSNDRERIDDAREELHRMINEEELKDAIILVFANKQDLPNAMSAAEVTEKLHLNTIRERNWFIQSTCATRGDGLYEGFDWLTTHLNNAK
Sequence of UniProt Q8IIG7 (Q8IIG7 whole entry): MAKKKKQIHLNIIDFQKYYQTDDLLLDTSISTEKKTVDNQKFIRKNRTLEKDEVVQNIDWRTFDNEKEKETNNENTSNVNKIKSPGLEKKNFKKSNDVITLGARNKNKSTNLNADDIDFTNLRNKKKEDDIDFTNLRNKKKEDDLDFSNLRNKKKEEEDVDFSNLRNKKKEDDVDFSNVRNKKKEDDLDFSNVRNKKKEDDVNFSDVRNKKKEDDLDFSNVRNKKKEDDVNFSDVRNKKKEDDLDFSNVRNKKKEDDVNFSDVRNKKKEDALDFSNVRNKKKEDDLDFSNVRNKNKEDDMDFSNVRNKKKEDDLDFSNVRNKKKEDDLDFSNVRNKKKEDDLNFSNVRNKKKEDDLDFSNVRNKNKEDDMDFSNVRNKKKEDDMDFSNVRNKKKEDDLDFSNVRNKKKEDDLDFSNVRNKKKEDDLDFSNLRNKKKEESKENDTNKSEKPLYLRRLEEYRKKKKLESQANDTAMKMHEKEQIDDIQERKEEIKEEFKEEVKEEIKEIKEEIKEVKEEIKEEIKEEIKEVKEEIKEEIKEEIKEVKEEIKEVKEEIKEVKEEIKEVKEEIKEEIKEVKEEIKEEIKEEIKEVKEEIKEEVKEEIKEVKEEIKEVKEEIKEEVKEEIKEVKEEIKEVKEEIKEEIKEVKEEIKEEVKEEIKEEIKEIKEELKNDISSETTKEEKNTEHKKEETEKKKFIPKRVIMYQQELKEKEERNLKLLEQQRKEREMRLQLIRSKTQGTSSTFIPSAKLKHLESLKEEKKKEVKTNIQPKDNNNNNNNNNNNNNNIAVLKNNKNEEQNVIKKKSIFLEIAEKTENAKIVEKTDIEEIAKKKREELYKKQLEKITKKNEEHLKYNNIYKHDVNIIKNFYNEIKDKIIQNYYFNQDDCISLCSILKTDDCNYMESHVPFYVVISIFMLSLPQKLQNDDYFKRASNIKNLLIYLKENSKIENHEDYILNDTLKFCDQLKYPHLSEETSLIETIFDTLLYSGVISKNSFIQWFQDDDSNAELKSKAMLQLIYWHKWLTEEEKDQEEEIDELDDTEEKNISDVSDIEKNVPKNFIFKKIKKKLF
Sequence of UniProt Q8IBS5 (Q8IBS5 whole entry): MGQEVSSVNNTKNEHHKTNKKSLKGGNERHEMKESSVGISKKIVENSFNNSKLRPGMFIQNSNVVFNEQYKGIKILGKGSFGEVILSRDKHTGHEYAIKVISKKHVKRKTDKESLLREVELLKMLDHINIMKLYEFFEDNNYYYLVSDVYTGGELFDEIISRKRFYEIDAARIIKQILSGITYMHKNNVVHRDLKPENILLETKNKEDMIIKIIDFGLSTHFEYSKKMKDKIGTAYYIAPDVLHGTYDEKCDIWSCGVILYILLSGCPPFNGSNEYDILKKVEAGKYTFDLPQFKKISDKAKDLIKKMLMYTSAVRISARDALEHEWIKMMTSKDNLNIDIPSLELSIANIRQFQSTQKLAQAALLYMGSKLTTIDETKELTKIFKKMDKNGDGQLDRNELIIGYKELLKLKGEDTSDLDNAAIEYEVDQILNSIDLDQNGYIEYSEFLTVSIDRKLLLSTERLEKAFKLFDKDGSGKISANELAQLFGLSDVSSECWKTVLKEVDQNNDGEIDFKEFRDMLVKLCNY
Sequence of UniProt Q8IJX8 (Q8IJX8 whole entry): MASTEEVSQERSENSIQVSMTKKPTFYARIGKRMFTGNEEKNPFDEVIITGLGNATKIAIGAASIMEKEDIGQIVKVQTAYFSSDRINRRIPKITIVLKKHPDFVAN
Sequence of Q8ICR0 (O15865 whole entry, one chain of several): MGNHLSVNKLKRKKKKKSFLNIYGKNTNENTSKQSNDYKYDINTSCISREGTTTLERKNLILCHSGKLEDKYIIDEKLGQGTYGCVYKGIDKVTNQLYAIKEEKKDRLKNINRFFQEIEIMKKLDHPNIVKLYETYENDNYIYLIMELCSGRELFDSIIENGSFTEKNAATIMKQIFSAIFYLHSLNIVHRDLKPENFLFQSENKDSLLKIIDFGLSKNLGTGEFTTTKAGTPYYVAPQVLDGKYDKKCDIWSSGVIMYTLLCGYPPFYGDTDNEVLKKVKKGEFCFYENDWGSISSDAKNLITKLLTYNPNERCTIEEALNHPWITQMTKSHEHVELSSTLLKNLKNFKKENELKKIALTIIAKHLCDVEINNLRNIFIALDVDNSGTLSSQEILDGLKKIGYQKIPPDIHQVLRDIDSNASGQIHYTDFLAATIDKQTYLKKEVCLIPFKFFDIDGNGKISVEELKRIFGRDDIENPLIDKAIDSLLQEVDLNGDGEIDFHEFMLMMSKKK

O=c1[nH]c2ccc(Cl)cc2c(NC2CN3CCC2CC3)c1-c1nc2ccccc2[nH]1 (stereo unspecified) [CHIR-124]
> 20 µM: UniProt Q7KQL3 | UniProt Q8II01 | UniProt Q8IDW4 | UniProt Q8ILZ7 | UniProt Q8IDG2 | UniProt Q8I5B6 | UniProt Q8IKH3 | UniProt Q8I603 | UniProt Q8I1V2 | UniProt P50250 | UniProt Q8IM27 | UniProt Q8IIV2 | UniProt Q8IDJ8 | UniProt O96258 | UniProt Q8IJX3 | UniProt Q8IAY9 | UniProt O96259 | UniProt Q8IID5 | UniProt O77388 | UniProt Q8IKF6 | UniProt Q8II79 | UniProt Q8IAX6 | UniProt Q6ZMA8 | UniProt Q8IDB8 | UniProt O97249 | UniProt Q8I5Q6 | UniProt Q8IJT1 | UniProt Q8II53 | UniProt Q8IAW0 | UniProt Q8I0W9 | UniProt Q8ID50 | UniProt Q8IJN3 | UniProt Q9TY98 | UniProt O77310 | UniProt Q9U0I0 | UniProt Q8ID96 | UniProt Q8ILV2 | UniProt Q8I202 | UniProt C6KTC6 | UniProt Q8II16 | UniProt Q8I5L6 | UniProt Q9TY94 | UniProt Q8IBS5 | Q8ICR0 | UniProt Q8IIF4 | UniProt Q8IJX8 | UniProt Q8IIG7 | UniProt Q8IE85 | UniProt Q8IJI0 | UniProt Q8I5X7 | UniProt C0H586
